Laboratory results: PubChem BioAssay (NCI)
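Step 1: Grow cells in 96-well plates. Step 2: Expose to compound for 48 hours at 5 concentrations. Step 3: Interpolate endpoints linearly; if unreached, use highest concentration. Here, GI50 denotes the concentration required for 50% inhibition of growth. At the TGI there is no net growth.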

Experiments:
Assay in all cases: NCI-60 cell line screen, 48 h
IGROV1 ovarian = test system: IGROV1 ovarian
UO-31 renal = test system: UO-31 renal
CCRF-CEM leukemia = test system: CCRF-CEM leukemia
MALME-3M melanoma = test system: MALME-3M melanoma
786-0 renal = test system: 786-0 renal
SNB-19 CNS = test system: SNB-19 CNS
HT29 colon = test system: HT29 colon
HCC-2998 colon = test system: HCC-2998 colon
RXF 393 renal = test system: RXF 393 renal
K-562 leukemia = test system: K-562 leukemia

Structure (SMILES)	TGI (IGROV1 ovarian)	TGI (UO-31 renal)	TGI (CCRF-CEM leukemia)	TGI (MALME-3M melanoma)	TGI (786-0 renal)	TGI (SNB-19 CNS)	TGI (HT29 colon) [µM]	TGI (HCC-2998 colon)	TGI (RXF 393 renal)	TGI (K-562 leukemia)	GI50 (RXF 393 renal)	GI50 (IGROV1 ovarian)	GI50 (UO-31 renal)	GI50 (CCRF-CEM leukemia)	GI50 (K-562 leukemia)	GI50 (786-0 renal)	GI50 (SNB-19 CNS)	GI50 (HT29 colon) [µM]	GI50 (HCC-2998 colon)	GI50 (MALME-3M melanoma)
CN1C(=O)c2ccccc2NC(=O)C12O[C@@H]2c1cccc(O)c1 (stereo partly specified)	> 100 µM	> 100 µM	> 100 µM	> 100 µM	> 100 µM	> 100 µM	> 100	> 100 µM												
COc1ccc2c3c(coc13)C(CCC(=O)O)CC2 (stereo unspecified)	> 100 µM				> 100 µM	> 100 µM	> 100	> 100 µM	> 100 µM											
CC(C)N1CN(C(C(=O)N[C@@H]2C(=O)N3C2SC(C)(C)C3C(=O)O)c2ccccc2)CSC1=S (stereo partly specified)	> 100 µM	> 100 µM	> 100 µM	> 100 µM	> 100 µM	> 100 µM	> 100			> 100 µM										
CCc1ccc(Nc2ccc([N+](=O)[O-])cc2[N+](=O)[O-])cc1	> 100 µM	> 100 µM	> 100 µM	> 100 µM	> 100 µM		> 100	> 100 µM	> 100 µM	> 100 µM										
CCOc1ccc2c(c1)[n+]([O-])c(-c1nc3ccccc3s1)c(N)[n+]2[O-]	> 100 µM	96.3 µM	> 100 µM	> 100 µM	> 100 µM	> 100 µM	> 100	> 100 µM		> 100 µM										
COc1ccc(C2SCC(=O)N2NC(=O)Nc2c(C)nc3ccccn23)cc1 (stereo unspecified)	> 100 µM	> 100 µM	> 100 µM		61.6 µM	47.3 µM	> 100	> 100 µM	69.3 µM	> 100 µM	26.4 µM	38.6 µM	32.7 µM	> 100 µM	> 100 µM	21.8 µM	21.7 µM	> 100	> 100 µM	
COc1ccc(/C=C\c2cc(OC)c(OC)c(OC)c2)cc1OC(=O)NCCN(C)C	> 100 µM	> 63.2 µM		98.3 µM	> 34.8 µM	> 100 µM	19.9	0.487 µM	< 0.0001 µM	23.7 µM		0.00139 µM						0.348	< 0.0469 µM	
OC/C=C(\I)CCCOCOCc1ccccc1	> 100 µM	> 100 µM	46.1 µM		> 100 µM	> 100 µM	> 100	> 100 µM	72.3 µM	> 100 µM										
Cc1ccc2c(c1)CN(C(=O)CCC(=O)OCc1ccccc1)c1ccc(C)cc1CN2C(=O)CCC(=O)OCc1ccccc1	> 100 µM		> 100 µM	> 100 µM	> 100 µM	> 100 µM	> 100	> 100 µM	> 100 µM	> 100 µM										
CC[CH2][Sn]([Cl])([Cl])[CH2]CC.Oc1ccccc1C=NCCN=Cc1ccccc1O	27 µM	21.5 µM	41.8 µM	4.61 µM	20.7 µM	25 µM		23.8 µM	8.11 µM	> 100 µM	2.41 µM	5.98 µM	5.45 µM	2.16 µM	2.53 µM	7.91 µM	12.1 µM		11.1 µM	1.57 µM
COc1cc2c(c(OC)c1)C1(CC(CC#N)C2)SCCS1 (stereo unspecified)	> 100 µM	> 100 µM	> 100 µM	> 100 µM	> 100 µM	> 100 µM		> 100 µM	> 100 µM	> 100 µM										
COc1ccc(-n2cc(-c3cc(OC)c(OC)c(OC)c3)[nH]c2=O)cc1Cl	> 100 µM	> 100 µM	> 100 µM	> 100 µM	> 100 µM	> 100 µM	> 100	> 100 µM		> 100 µM		> 100 µM	> 100 µM	> 100 µM	> 100 µM	27.7 µM	42.6 µM	> 100	> 100 µM	> 100 µM
Fc1ccc(C2SCc3nc4ccccc4n32)cc1Cl (stereo unspecified)		43.5 µM	87.4 µM	31 µM	> 100 µM	> 100 µM	> 100	37.2 µM	50 µM	55.9 µM										
N.N.O=C([O-])P(=O)([O-])[O-].[Na+].[Pt+4]	> 100 µM	> 100 µM	> 100 µM	> 100 µM	> 100 µM	> 100 µM		> 100 µM	> 100 µM	> 100 µM	> 100 µM	> 100 µM	> 100 µM	> 100 µM	> 100 µM	> 100 µM	> 100 µM		> 100 µM	> 100 µM
C/C=C1/C(=C/c2[nH]c(/C=c3\[nH]/c(=C/C4=NC(=O)C(CC)=C4C)c(C)c3CCC(=O)O)c(CCC(=O)O)c2C)NC(=O)C1C (stereo unspecified)	> 150 µg/mL	> 150 µg/mL	> 150 µg/mL	> 150 µg/mL	> 150 µg/mL	> 150 µg/mL		> 150 µg/mL	> 150 µg/mL	> 150 µg/mL	> 150 µg/mL	> 150 µg/mL	> 150 µg/mL	> 150 µg/mL	> 150 µg/mL	> 150 µg/mL	> 150 µg/mL		> 150 µg/mL	> 150 µg/mL
CCc1oc2ccccc2c1C(=O)c1cc(I)c(O)c(I)c1		10.5 µM	15.4 µM	7.9 µM	15.3 µM	18.9 µM	14.5	17.5 µM	16 µM	18.8 µM	2.98 µM		1.82 µM	2.05 µM	0.726 µM	3.76 µM	5.19 µM	3.61	4.84 µM	1.41 µM
COc1ccc(CNc2nc3cc(C(F)(F)F)ccc3nc2C)cc1OC	> 100 µM	65.1 µM	> 100 µM	44.1 µM	58.9 µM	> 100 µM	> 100	58.9 µM		> 100 µM										
COc1ncc(-c2ccc3ncnc(Nc4cccc(Cl)c4)c3c2)cc1NS(=O)(=O)CCN1CCOCC1			> 100 µM		> 100 µM	> 100 µM								0.799 µM		0.298 µM	0.945 µM			
